Measurements reported in patent US20090233999A1, “COMPOSITIONS AND THERAPEUTIC METHODS INVOLVING ISOFLAVONES AND ANALOGUES THEREOF” (NOVOGEN RESEARCH PTY LTD, priority 1999, published 2009).
Marks after values point to notes of the source that are not given here.

Key:
TNFα = assay: LPS-induced TNFα synthesis in RAW 264.7 murine macrophages; format: cell-based, mouse; conditions: 10 μM; RAW 264.7, LPS
Experimental: Subconfluent RAW 264.7 cells were seeded into 24-well plates at 5×10^5 cells per well and allowed to adhere for 1 hr. Cells were then treated either test compound (in 0.025% DMSO) or vehicle alone, and incubated for 1 hr. LPS 50 ng/ml (LPS—Sigma-Aldrich) was then added. After incubation for 16 hrs, culture media was collected and stored at −80° C. TNFα measurement using an ELISA (Becton Dickinson).

red blood cells = assay: Peroxyl radical (AAPH)-induced red blood cell lysis; format: cell-based; conditions: 10 μM; AAPH-induced RBC lysis; vehicle 40.0
Experimental: Freshly collected heparinised venous blood (10 ml, on ice) was aliquotted into 1.8 ml sterile eppendorf tubes and centrifuged for 10 minutes at 2600 rpm at 4° C. Plasma and buffy coat layers were removed (approximately 900 μl) and packed red blood cells (RBC) were then washed by the addition of 900 μl of sterile, ice cold PBS. This washing procedure was repeated twice. Packed RBC were resuspended by the addition of 900 μl of ice-cold, sterile PBS (and termed RBC stock). RBC stocks were stored at 4° C. for a maximum of three days. All working suspensions of RBC were prepared fresh daily by diluting 200 μl of RBC stock into 10 ml of ice-cold, sterile PBS and 50 μl added to each well.
The free radical generator AAPH (1.22 gm) was dissolved in 7.5 ml of PBS to yield a 4× stock at 600 mM and 50 μl aliquots (final concentration of 150 mM) were then added to each well to initiate the lysis assay. Test compounds were examined at […] (in DMSO 0.25%). Appropriate controls were included in each experiment. Peroxyl-induced RBC lysis assays were performed in 96-flat bottom well microtitre plates with a total volume of 200 μl per well. Turbidity of RBC suspensions were monitored using a Tecan microplate reader at 690 nm (37° C.) with gentle vortexing. Assays were performed in quadruplicate and readings were taken every 5 minutes over 5 hours. RBC lysis curves were constructed by plotting absorbance (mean of 4 readings) against time. Time to half-lysis was calculated by taking the highest absorbance reading (no lysis) and the lowest absorbance reading (maximum lysis). The sum of these two readings divided by two gave the absorbance at half-lysis. Simple regression analysis was used to calculate the time at which half-lysis absorbance occurred.

superoxide = assay: Extracellular superoxide production by differentiated HL-60 cells (cytochrome C reduction); format: cell-based, human; conditions: for extracellular superoxide production, % change compared with vehicle control: HL-60, PMA; for inhibition of superoxide production: Cpd. 16 at 100 μM
Experimental: The human promyeloblast cell line HL-60 can be differentiated into neutrophil-like cells, which then produce ROS when activated. HL-60 cells were grown in RPMI-1640 medium containing glutamine and supplemented with FBS 20%. They were differentiated by culturing for 6 days in medium containing DMSO 1.25%, after which they were washed, centrifuged and incubated at 37° C. for 5 minutes with cytochalasin before transfer to PBS containing cytochrome C and test compound. After a 5 minute incubation, phorbol myristate acetate (PMA) was added to activate the HL-60 cells, which were then incubated for a further 10 minutes. The cells were then pelleted by centrifugation, and the change in absorbance due to reduction of cytochrome C in the cell-free supernatant was measured at 550 nm. The increase in absorbance is a direct measure of extracellular superoxide production by the cells, and a reduction in those samples incubated with test compounds would indicate anti-oxidant activity. Samples were examined in duplicate, and the assay done three times.

HCASMC = assay: Proliferation of human coronary artery smooth muscle cells; format: cell-based; conditions: VSMC, 120 h, five days, MTT
Experimental: Human coronary smooth muscle cells (HCASMC—Clonetics) supplied at passage 3 and used for up to a further 12 population doublings, were seeded into 96 well plates at a low seeding rate, 2-5×10^3 cells per well and allowed to attach and proliferate to 30-40% confluence for 24-48 hours. Prior to inoculation the medium was changed to fresh growth medium. Test compounds were prepared in growth medium and added to plates so that the final concentrations were a series from 150 μM to 0.6 μM. The cells were incubated for five days, cell number assessed using MTT and an IC50 for each compound calculated.

HUVSMC = assay: Proliferation of human umbilical vein smooth muscle cells; format: cell-based; conditions: VSMC, 120 h, 5 days
Experimental: Human umbilical vein smooth muscle cells (HUVSMC), tissue explants from a neonate (HRI— passage 2), were seeded into 96 well plates at 1×10^3 cells per well, and allowed to attach for 24 hours. They were then washed twice and incubated in medium without FBS for 24-48 hours to serum-starve them. Test compounds were prepared in medium without FBS and added to the plates and incubated for one hour. Medium with FBS was added to give a final concentration of 10% and the plates incubated for 5 days until the controls were just confluent. Final analogue concentration was therefore either a series from 150 μM to 1.2 μM, or single concentrations of 10 μM. The difference in absorbance between treated cells and untreated cells was calculated using the formula, test/control*100, to obtain the percentage change caused by the test compound. As well, an IC50 for each compound was calculated.

[1] = test system: BALB/c mice (AA-induced ear swelling); assay: Murine ear inflammation assay, AA-induced ear swelling; format: in vivo, mouse; conditions: 25 mg/kg i/p; for % Change compared with vehicle / Change in ear thickness (mean ± SD, ×0.01 mm): AA, 1 hr post-AA
Experimental: (§1) Female BALB/c mice (ARC, WA, Australia), weighing 15-21 g, and maintained on an isoflavone-free diet (Gordon's Specialty Stock Foods, Yanderra, NSW) for at least seven days, were randomised into test groups of five or six. To reduce animal use, mice had ear swelling induced by applying AA (Sigma, Steinheim, Germany) initially, and then by phorbol 12-Myristate 13-acetate (PMA—Sigma, Mo., USA) one week later.
(§2) Test compounds were dissolved in polyethylene glycol (PEG) 400 (Sigma, St. Louis, Mo., USA):phosphate buffered saline 1:1 and injected intraperitoneally (i/p) at a dose of 25 mg/kg either 30 min prior to AA treatment or 1 hr prior to PMA treatment. Mice were anaesthetised using isoflurane (Veterinary Companies of Australia Pty Ltd, NSW, Australia) and baseline thickness of both ears was measured using a spring micrometer (Interapid, Zurich, Switzerland). Each mouse received a total of 20 μL of either AA in ethanol (50 mg/ml) or PMA in acetone (0.2 mg/ml) applied to the inner and outer surfaces of each pinna (i.e. 5 μL per ear surface). Mice were anaesthetised again to remeasure the ears at 1 hr post-AA application or at 5 hr post-PMA application.
(§3) The difference in ear swelling pre- and post-application of inflammogen for each ear was calculated. The difference in mean swelling of each test group compared to the group given vehicle alone was calculated using a two-tailed unpaired t-test (Prism 4, Graphpad Software).

[2] = test system: BALB/c mice (PMA-induced ear swelling); assay: Murine ear inflammation assay, PMA-induced ear swelling; format: in vivo, mouse; conditions: 25 mg/kg i/p; for % Change compared with vehicle / Change in ear thickness (mean ± SD, ×0.01 mm): PMA, 5 hr post-PMA
Experimental: as §1, §2, §3

Compound	synthesis of TNFα (TNFα)	Time taken to reach half-lysis (red blood cells)	extracellular superoxide production, % change compared with vehicle control (superoxide; 10 μM)	extracellular superoxide production, % change compared with vehicle control (superoxide; 100 μM)	inhibition of superoxide production (superoxide)	IC50 (HCASMC)	IC50 (HUVSMC)	% Change compared with vehicle [1]	Change in ear thickness (mean ± SD, ×0.01 mm) [1]	% Change compared with vehicle [2]	Change in ear thickness (mean ± SD, ×0.01 mm) [2]	ear oedema caused by the application of AA [1]	inflammation caused by the application of PMA [2]
Oc1ccc2c(c1)OCC(c1ccc(Br)cc1)=C2 [Cpd. 21, 4′-Bromo-7-hydroxyisoflav-3-ene]	inhibited	140.8 min	−10%	−11%	trend towards inhibition	29 µM	8 µM	−11%	14.4 ± 5.1 ×0.01 mm	+24%	27.2 ± 8.6 ×0.01 mm		
COc1cccc(C2=Cc3ccc(O)cc3OC2)c1 [Cpd. 16, 7-Hydroxy-3′-methoxyisoflav-3-ene]	tended to do so	164.3 min	−22%	−57* %	significantly inhibited	118 µM	63 µM	−29%	11.6 ± 2.9 ×0.01 mm	−11%	23.3 ± 4.5 ×0.01 mm	significant reduction	
COc1ccc(C2=Cc3ccc(O)c(C)c3OC2)cc1OC [Cpd. 19, 7-Hydroxy-3′,4′-dimethoxy-8-methylisoflav-3-ene]	inhibited	111.6 min	−11%	16%	trend towards inhibition	63 µM	34 µM	−34%	9.3 ± 3.9 ×0.01 mm	−26%	22.1 ± 3.9 ×0.01 mm	significant reduction	significantly inhibited
Cc1c(O)ccc2c1OCC(c1cccc(O)c1)=C2 [Cpd. 14, 3′,7-Dihydroxy-8-methylisoflav-3-ene]	tended to do so	134.7 min	−20%	−20%	trend towards inhibition	54 µM	64 µM	−34%	10.7 ± 2.9 ×0.01 mm	+7%	27.9 ± 3.8 ×0.01 mm	significant reduction	
Oc1ccc(C2=Cc3ccc(O)c(Br)c3OC2)cc1 [Cpd. 20, 4′,7-Dihydroxy-8-bromoisoflav-3-ene]	tended to do so	122.0 min	6%	28%	not active	27 µM	32 µM	−11%	14.4 ± 6.1 ×0.01 mm	+4%	22.7 ± 4.7 ×0.01 mm		
COc1ccc(C2=Cc3ccc(O)cc3OC2)cc1OC [Cpd. 18, 7-Hydroxy-3′,4′-dimethoxyisoflav-3-ene]	inhibited	107.7 min	−24%	−36* %		88 µM	140 µM	−40%	8.4 ± 3.7 ×0.01 mm	−1%	29.6 ± 2.7 ×0.01 mm	significant reduction	
